In brackets after ≈: the same amount, converted by molar mass.
Legend:
RARα = molecular target: T1, RARα (Homo sapiens, UniProt P10276); experiment: Transactivation (luciferase) antagonist assay, RARα; format: cell-based; conditions: vs EC80 (180 nM) 9-cis-RA, luciferase readout; read-out: RARα Antagonism IC50
T1 construct: host or cells: unnamed reporter cells
T1 sequence (P10276 1-462): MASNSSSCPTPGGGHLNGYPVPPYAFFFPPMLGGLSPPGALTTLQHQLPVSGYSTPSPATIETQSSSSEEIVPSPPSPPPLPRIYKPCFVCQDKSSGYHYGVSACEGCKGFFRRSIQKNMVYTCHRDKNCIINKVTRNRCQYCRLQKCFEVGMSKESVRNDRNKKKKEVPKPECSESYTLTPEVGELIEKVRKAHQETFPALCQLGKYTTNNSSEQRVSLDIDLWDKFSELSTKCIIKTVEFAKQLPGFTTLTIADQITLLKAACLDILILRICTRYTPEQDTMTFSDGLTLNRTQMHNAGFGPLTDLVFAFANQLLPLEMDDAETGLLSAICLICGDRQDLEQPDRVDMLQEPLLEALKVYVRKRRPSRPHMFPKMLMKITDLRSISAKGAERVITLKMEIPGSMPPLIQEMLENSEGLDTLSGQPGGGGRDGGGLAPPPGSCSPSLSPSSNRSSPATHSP
Protocol: (§1) Control wells containing cells without added agonist defined the background signal values. […] Cell suspension (30 μL) was added to each well and the assay plate was incubated overnight in a 5% CO2 incubator at 37° C. Luciferase detection reagent (15 μL) was then added and the plate was incubated at RT for 30 minutes. Luminescence was quantified using an EnSpire plate reader (PerkinElmer, Waltham, MA). IC50 values were determined by fitting dose response data using the four-parameter logistic equation in GraphPad Prism 7.0.

RARγ = molecular target: T2, RARγ (Homo sapiens, UniProt P13631); experiment: Transactivation (luciferase) antagonist assay, RARγ; format: cell-based; conditions: vs EC80 (8 nM) ATRA, luciferase readout; read-out: RARγ Antagonism IC50
T2 construct: host or cells: unnamed reporter cells
T2 sequence (P13631 1-454): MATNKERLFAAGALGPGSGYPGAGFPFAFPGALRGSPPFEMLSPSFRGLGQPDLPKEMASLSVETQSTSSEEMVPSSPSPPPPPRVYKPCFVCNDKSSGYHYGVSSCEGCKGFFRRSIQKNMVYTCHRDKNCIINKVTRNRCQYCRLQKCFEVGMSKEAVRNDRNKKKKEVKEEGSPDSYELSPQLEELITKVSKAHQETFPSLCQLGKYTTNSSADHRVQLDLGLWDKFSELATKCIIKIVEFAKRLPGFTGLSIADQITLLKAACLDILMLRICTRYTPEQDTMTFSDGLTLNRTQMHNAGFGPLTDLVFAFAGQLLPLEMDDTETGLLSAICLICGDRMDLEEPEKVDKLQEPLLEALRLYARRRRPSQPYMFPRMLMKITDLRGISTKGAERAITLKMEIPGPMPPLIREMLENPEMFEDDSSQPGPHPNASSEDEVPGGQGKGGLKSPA
Protocol: as §1

RARβ = molecular target: T3, RARβ (Homo sapiens, UniProt P10826); experiment: Transactivation (luciferase) antagonist assay, RARβ; format: cell-based; conditions: vs EC80 (8 nM) ATRA, luciferase readout; read-out: RARβ Antagonism IC50
T3 construct: host or cells: unnamed reporter cells
T3 sequence (P10826 1-455): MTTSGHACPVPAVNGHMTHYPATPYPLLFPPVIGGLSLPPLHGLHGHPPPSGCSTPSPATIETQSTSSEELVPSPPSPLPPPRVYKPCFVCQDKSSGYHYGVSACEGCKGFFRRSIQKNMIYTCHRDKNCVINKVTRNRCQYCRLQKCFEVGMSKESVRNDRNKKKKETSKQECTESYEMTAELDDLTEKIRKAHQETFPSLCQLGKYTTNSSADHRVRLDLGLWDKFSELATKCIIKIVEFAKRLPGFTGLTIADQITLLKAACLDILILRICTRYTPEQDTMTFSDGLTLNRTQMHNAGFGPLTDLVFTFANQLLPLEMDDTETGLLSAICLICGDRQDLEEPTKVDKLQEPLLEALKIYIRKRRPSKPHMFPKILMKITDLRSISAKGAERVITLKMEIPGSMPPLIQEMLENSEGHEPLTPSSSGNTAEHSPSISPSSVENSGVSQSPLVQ
Protocol: as §1

[1] = Solubility in PBS at pH 7.4; format: physicochemical

Row | SMILES | IC50 (RARα) | IC50 (RARγ) | IC50 (RARβ) | solubility [1]
1 | Cc1ccc(C2=CC(C)(C)Oc3ccc(-c4ccc(-c5cc(F)c(C(=O)O)c(F)c5)[nH]4)cc32)cc1 | 470 nM | – | – | –
2 | COc1cc2c(cc1-c1ccc(-c3ccc(C(=O)O)cc3)[nH]1)C(c1ccc(C)cc1)=CC(C)(C)O2 | 2000 nM | – | – | –
3 | Cc1ccc(C2=CC(C)(C)Oc3ccc(-c4ccc(-c5ccc(C(=O)O)c(O)c5)[nH]4)cc32)cc1 | 94 nM | > 3000 nM | > 3000 nM | –
4 | Cc1ccc(C2=CC(C)(C)Oc3ccc(-c4ccc(-c5ccc(C(=O)O)c(F)c5)[nH]4)cc32)cc1 | 100 nM | – | – | –
5 | CC1(C)C=C(c2ccccc2)c2cc(-c3ccc(-c4ccc(C(=O)O)cc4)[nH]3)ccc2O1 | 15 nM | > 3300 nM | > 3300 nM | –
6 | Cc1ccc(C2=CC(C)(C)Oc3ccc(-c4ccc(-c5ccc(C(=O)O)c(C)c5)[nH]4)cc32)cc1 | 87 nM | > 3000 nM | > 3000 nM | –
7 | CC(=O)[C@H]1CC[C@H]2[C@@H]3CCC4=CC(=O)CC[C@]4(C)[C@H]3CC[C@]12C [Progesterone, reference compound] | – | – | – | 14.02 µM (≈ 4.41 µg/mL)
